Test results: patent US20100130604A1, “USE OF ROSMARINIC ACID IN MANUFACTURE OF MEDICAMENTS FOR TREATING OR PREVENTING HEPATIC AND RENAL DISEASES” (SHANGDONG LUYE NATURAL DRUG RESEARCH AND DEVELOPMENT CO., …, priority 2006, published 2010)
Where two headings read alike, the source gives them in different places.

Legend:
[1] = system: renal interstitial fibrosis in rats; assay: Renal interstitial fibrosis in rats with unilateral urethral obstruction; format: in vivo, Sprague Dawley rats; conditions: for HYP: left kidney; for HYP / FN: day 10; for FN: serum
Method: 130 rats were randomly divided into 13 groups, namely, a sham operation group, a model group, benazapril p.o. Group at 10 mg/kg, RA i.v. groups at 2.5 mg/kg, 5 mg/kg, 25 mg/kg, 75 mg/kg, and 150 mg/kg of RA, and RA p.o. groups at 2.5 mg/kg, 5 mg/kg, 25 mg/kg, 150 mg/kg, and 300 mg/kg of RA. The animals were acclimated for a week before they were all anaesthetised with an i.p. dose of 10% chloral hydrate at 3.0mL/kg and placed on the operating table in right lateral position. The rats were shaved and the operating area was disinfected using iodine tincture and 75% ethanol. The left urethra was exposed and isolated after a left lateral incision was made on the abdominal area and skin, muscles and all other layers of the abdominal wall were incised sequentially. In the sham group, the left urethra was only isolated without being ligated or cut off. In all other animals, the left urethra was ligated with No. 4 suture and obstructed followed by closure of the abdominal wall layer by layer. The animals were anaesthetised again with 10% chloral hydrate 10 days later, blood was collected and serum was separated to determine FN levels. The left kidney was removed after thorough rinsing and then fixed in 4% paraformaldehyde buffer. HYP level was determined according to instructions provided with the kit.

HSC-T6 cells = assay: Inhibitory effect of RA on HSC-T6 cell growth (MTT); format: cell-based; conditions: for inhibition at 0.1 µg/mL / inhibition at 1 µg/mL / inhibition at 10 µg/mL / inhibition at 50 µg/mL / inhibition at 100 µg/mL: HSC-T6, read-out: Inhibition rate (%); for inhibition at 0.1 µg/mL: 0.1 mg/L; for inhibition at 1 µg/mL: 1 mg/L; for inhibition at 10 µg/mL: 10 mg/L; for inhibition at 50 µg/mL: 50 mg/L; for inhibition at 100 µg/mL: 100 mg/L
Text: Cells and experimental groups: HSC cell line was HSC-T6 (Shanghai Biosis Biotechnology Co. Ltd.), with the phenotype of active HSC. The cells were divided into groups for 0, 2.5, 5, 10, 20, and 40 μmol·L^−1 of RA. MTT method (Ye T and Liu X C, Effect of Pentoxifilline on Proliferation of Mesangial Cell Cultured in glucose-rich Medium and on CTGF Expression, Chinese Pharmacological Bulletin, 2004, 20(8): 883-885) was used to determine the effective RA concentration. Effects of RA on HSC-T6 proliferation and CTGF expression were examined.
A 1000 mg/L stock solution of RA in DMEM medium was prepared, and filtered through 0.22 μm microfilter to remove bacteria. The stock was then aliquoted in appropriate containers and stored at −20° C. in dark. It is good for use within 2 weeks. DMEM supplemented with 2% fetal bovine serum (FBS) was used to dilute the stock to desired concentrations before use.
HSC-T6 cells were cultured in DMEM supplemented with 100 U·mL^−1 penicillin, 100 U·mL^−1 streptomycin, and 10% FBS at 37° C., 5% CO2, and saturated humidity. Medium was changed every other day. The culture was digested with 0.002% EDTA and 0.25% trypsin at 80-90% confluence. And the cells were passaged at 1:4.
HSC-T6 cells at logarithmic phase after thawed were digested with trypsin and seeded to 96-well plate in DMEM supplemented with 5% FBS at the density of 1×10^4. After 24 hours culture, different concentrations of RA were added according to table 1. Each concentration of RA was added to 6 wells. Blank wells were designed to serve as control. […] The supernatant was discarded after 4 hours of incubation, and […] of dimethyl sufoxide (DMSO) was added to each well to obtain cell lysate, which was then shaken well before detected for OD value on ELISA reader (492 nm). Cell growth inhibition rates were calculated.

[2] = system: proximal tubular epithelial cells (PTECs); assay: Proliferation of PTECs cultured in glucose-rich medium (MTT); format: cell-based; conditions: for OD value: 72 h, 570 nm
Method: A 1000 mg/L stock solution of RA in DMEM medium was prepared, and filtered through 0.22 μm microfilter to remove bacteria. The stock was then aliquoted in appropriate containers and stored at −20° C. in darkness. It is good for use within 2 weeks. DMEM supplemented with 2% fetal bovine serum (FBS) was used to dilute the stock to desired concentrations before use.
Remove frozen vials storing PTECs from liquid nitrogen, thaw in water bath at 37° C. for 5 min, centrifuge at 1000 r·min^−1 for 5 min, and discard the supernatant. Blow up the cells with culture medium and transfer them into flasks for static culture. The medium was DMEM supplemented with 10 v % FBS, 1×10^5 U·L^−1 penicillin, 100 mg·L^−1 streptomycin. The cells are cultured at 37° C., 5% CO2, and saturated humidity for 2-3 days before 0.25% trypsin were used to digest the cells which were then passaged.
PTEC cells at logarithmic phase were seeded to 96-well plate at the density of 1×10^5/mL. The medium was replaced with serum-free DMEM 24 hours later and the cell culture was cultured statically for 24 hours. Discard the supernatant, dose the wells according to table 3: normal control group (NG, 5 mmol·L^−1), high glucose group (HG, 30 mmol·L^−1), NG+10 mg/L RA group, NG+50 mg/L of RA group, HG+10 mg/L of RA group, HG50 mg/L of RA group, with 6 wells in each group. Incubate for 72 hours respectively. Add 20 μL of MTT (5 mg·mL^−1) to each well 4 hours before the experiment is terminated. Remove supernatant 4 hours later, and 150 μL of DMSO was added to each well, shake for 10 min and use ELISA reader to determine OD value at 570 nm.

Compound: O=C(/C=C/c1ccc(O)c(O)c1)O[C@H](Cc1ccc(O)c(O)c1)C(=O)O [RA, R(+)2-{[3-(3,4-dihydroxylphenyl-(oxo-2-propenyl)oxy]3,4-dihydroxylphenylpropionic acid]}]
- kidney lesions, light microscopic examination ([1]; RA treated animals vs model group): improvement of various degrees in lesions
- FN and HYP levels vs model group ([1]; i.v. 2.5, 5, 25, 75, 150 mg/kg, p.o. 5, 25, 150, 300 mg/kg, p<0.05 or 0.01): can all significantly reduce FN and HYP levels
- HYP ([1]; i.v. 2.5 mg/kg): 612 ± 102 µg/g
- HYP ([1]; i.v. 5 mg/kg): 605 ± 118 µg/g
- HYP ([1]; i.v. 25 mg/kg): 573 ± 98 µg/g
- HYP ([1]; i.v. 75 mg/kg): 533 ± 94 µg/g
- HYP ([1]; i.v. 150 mg/kg): 526 ± 121 µg/g
- HYP ([1]; p.o. 2.5 mg/kg): 705 ± 162 µg/g
- HYP ([1]; p.o. 5 mg/kg): 612 ± 118 µg/g
- HYP ([1]; p.o. 25 mg/kg): 573 ± 98 µg/g
- HYP ([1]; p.o. 150 mg/kg): 563 ± 94 µg/g
- HYP ([1]; p.o. 300 mg/kg): 556 ± 121 µg/g
- FN ([1]; i.v. 2.5 mg/kg): 22.7 ± 6.0 mg/L
- FN ([1]; i.v. 5 mg/kg): 19.9 ± 6.3 mg/L
- FN ([1]; i.v. 25 mg/kg): 17.7 ± 6.2 mg/L
- FN ([1]; i.v. 75 mg/kg): 16.5 ± 4.3 mg/L
- FN ([1]; i.v. 150 mg/kg): 16.4 ± 4.4 mg/L
- FN ([1]; p.o. 2.5 mg/kg): 22.4 ± 6.5 mg/L
- FN ([1]; p.o. 5 mg/kg): 19.8 ± 6.2 mg/L
- FN ([1]; p.o. 25 mg/kg): 17.5 ± 6.3 mg/L
- FN ([1]; p.o. 150 mg/kg): 17.2 ± 4.3 mg/L
- FN ([1]; p.o. 300 mg/kg): 17.2 ± 4.4 mg/L
- inhibition at 0.1 µg/mL (HSC-T6 cells; 12 h): 9.8 ± 2.3%
- inhibition at 0.1 µg/mL (HSC-T6 cells; 24 h): 12.1 ± 2.2%
- inhibition at 0.1 µg/mL (HSC-T6 cells; 48 h): 14.4 ± 2.3%
- inhibition at 1 µg/mL (HSC-T6 cells; 12 h): 20.7 ± 2%
- inhibition at 1 µg/mL (HSC-T6 cells; 24 h): 23 ± 2%
- inhibition at 1 µg/mL (HSC-T6 cells; 48 h): 25.3 ± 2.1%
- inhibition at 10 µg/mL (HSC-T6 cells; 12 h): 37.2 ± 2.6%
- inhibition at 10 µg/mL (HSC-T6 cells; 24 h): 38.6 ± 1.9%
- inhibition at 10 µg/mL (HSC-T6 cells; 48 h): 38.9 ± 3.2%
- inhibition at 50 µg/mL (HSC-T6 cells; 12 h): 52.3 ± 4.7%
- inhibition at 50 µg/mL (HSC-T6 cells; 24 h): 54.6 ± 4.6%
- inhibition at 50 µg/mL (HSC-T6 cells; 48 h): 55.2 ± 3.5%
- inhibition at 100 µg/mL (HSC-T6 cells; 12 h): 57.2 ± 2.3%
- inhibition at 100 µg/mL (HSC-T6 cells; 24 h): 59.6 ± 2.1%
- inhibition at 100 µg/mL (HSC-T6 cells; 48 h): 61.8 ± 2.2%
- HSC-T6 proliferation compared to the control group (HSC-T6 cells; different concentrations of RA): significantly inhibited HSC-T6 proliferation
- OD value ([2]; HG (30 mmol/L glucose) + 10 mg/L RA): 1.289 ± 0.041
- OD value ([2]; HG (30 mmol/L glucose) + 50 mg/L RA): 1.317 ± 0.077
- OD value ([2]; NG (5 mmol/L glucose) + 10 mg/L RA): 1.168 ± 0.106
- OD value ([2]; NG (5 mmol/L glucose) + 50 mg/L RA): 1.052 ± 0.036
- PTECs proliferation induced by high level of glucose ([2]; certain concentrations of RA, P<0.05): can inhibit PTECs proliferation induced by high level of glucose
